Tested on: EoL-1 (human eosinophilic leukaemia cell line) cells
Assay: TNF-α-induced cytokine release, non-differentiated EoL-1 cells (NO PMA) (Luminex)
Assay type: cell-based
Design: key to Fractalkine (NO PMA), p of decrement / IL-1α (NO PMA), p of decrement / IL-1β (NO PMA), p of decrement / IL-1ra (NO PMA), p of decrement / IL-5 (NO PMA), p of decrement / IL-7 (NO PMA), p of decrement / IL-8 (NO PMA), p of decrement / IP-10 (NO PMA), p of decrement / MCP-1 (NO PMA), p of decrement / MIP-1β (NO PMA), p of decrement / VEGF (NO PMA), p of decrement: ns = non significant
Procedure: EoL-1 (human eosinophilic leukaemia cell line) cells (Saito et al., 1985; Mayumi, 1992) were maintained in RPMI-1640 medium with L-glutamine supplemented with 10% (v/v) FBS at 37° C. in a humidified atmosphere with 5% CO2. Where indicated, 24 h before the experiment 25 ng/mL PMA ((phorbol 12-myristate 13-acetate, purchased from Sigma Aldrich) was added to the medium to induce eosinophil granulation and differentiation (Ohtsu et al., 1993; Zimmermann et al., 2000).
Half-million cells were aliquoted per point in a 24 well plate; each experiment was performed in triplicate and carried out in parallel with eosinophils differentiated and non differentiated with PMA (25 ng/mL, 24 h). Cells were suspended in low serum medium (RPMI-1640, 0.1% (v/v) FBS). TNF-α was used to induce cytokine secretion as previously described by Steube et al. (2000), and the net release was obtained by comparison to the basal (non-TNF-α treated). In the first experiment we evaluated the concentration and time relation between TNF-α stimulation and cytokine release. Therefore, 5, 10, and 25 ng/mL of TNF-α was administered to the cells at 0, ½, 1, 2, 3, 6, 12 and 24 h (data not shown). An aliquot of 150 μL of supernate was collected for cytokines' analysis. […] Differentiated and non-differentiated EoL-1 cells were exposed from 0.1 to 2.3 mM levocabastine ([…]Levocabastine 0.05% solution eye drops containing cyclodextrins, without benzalkonium chloride), and aliquots of the supernates were collected after 12 and 24 h. The content of cytokines at time zero was estimated by treating the cells with 400 nM calcimycin (A-23187), which is a cytolytic agent that frees all the mediators from the cytoplasmic compartment. In addition, for each experiment we tested the effect of the vehicle, which was added to the wells in a concentration equal to the maximum amount used for drug dilution.
Samples (supernates 12 and 24 h) in triplicate were analyzed using Luminex 200™ (Luminex, Austin, Tex.) and Beadview software v1.0 (Upstate Cell Signaling Solutions, Temecula, Calif.).
All data are presented as mean±SEM for the indicated number of experiments. Statistical significance was determined by Newman-Keuls test after ANOVA using GraphPad Prism (version 3.0; GraphPad Software Inc., San Diego, Calif., USA). P-values<0.05 were considered to be significant.

[1] = 12 h, TNF-α 5 ng + Levocabastine 2 mM vs TNF-α
[2] = 12 h, TNF-α 10 ng + Levocabastine 2 mM vs TNF-α
[3] = 12 h, TNF-α 20 ng + Levocabastine 2 mM vs TNF-α
[4] = 12 h, TNF-α 5, 10, 20 ng + Levocabastine 2 mM vs TNF-α
[5] = 24 h, FN + Levocabastine 2 mM vs FN
[6] = 24 h, Levocabastine 2 mM vs TNF-α

C[C@@H]1CN([C@H]2CC[C@](C#N)(c3ccc(F)cc3)CC2)CC[C@]1(C(=O)O)c1ccccc1 [Levocabastine, levocabastine]
release of IL-1-ra induced by TNF-α (2 mM, TNF-α 10 ng, 24 h, not exposed to PMA, not influenced by VCAM-1 or fibronectin (FIG. 11)): effective in reducing the release | release of IL-6 induced by TNF-α (2 mM, TNF-α 10 ng, 24 h, not exposed to PMA, not influenced by VCAM-1 or fibronectin (FIG. 12)): effective in reducing the release | release of IL-8 induced by TNF-α (2 mM, TNF-α 10 ng, 24 h, not exposed to PMA, not influenced by VCAM-1 or fibronectin (FIG. 13)): effective in reducing the release | release of IL-12-P40 induced by TNF-α (2 mM, TNF-α 5, 10 and 20 ng, 24 h, without PMA (FIG. 7)): capable of reducing the release | GM-CSF (NO PMA), p of decrement [1]: ns | IL-1β (NO PMA), p of decrement [1]: ns | IL-5 (NO PMA), p of decrement [1]: ns | IL-6 (NO PMA), p of decrement [1]: ns | IL-7 (NO PMA), p of decrement [1]: ns | IL-8 (NO PMA), p of decrement [1]: ns | IL-10 (NO PMA), p of decrement [1]: ns | IL-12p40 (NO PMA), p of decrement [1]: P < 0.001 | MCP-1 (NO PMA), p of decrement [1]: ns | TGF-α (NO PMA), p of decrement [1]: ns | VEGF (NO PMA), p of decrement [1]: P < 0.01 | GM-CSF (NO PMA), p of decrement [2]: ns | IL-1β (NO PMA), p of decrement [2]: ns | IL-5 (NO PMA), p of decrement [2]: ns | IL-6 (NO PMA), p of decrement [2]: ns | IL-7 (NO PMA), p of decrement [2]: ns | IL-8 (NO PMA), p of decrement [2]: ns | IL-10 (NO PMA), p of decrement [2]: ns | IL-12p40 (NO PMA), p of decrement [2]: P < 0.001 | MCP-1 (NO PMA), p of decrement [2]: ns | TGF-α (NO PMA), p of decrement [2]: ns | VEGF (NO PMA), p of decrement [2]: P < 0.01 | GM-CSF (NO PMA), p of decrement [3]: ns | IL-1β (NO PMA), p of decrement [3]: ns | IL-5 (NO PMA), p of decrement [3]: ns | IL-6 (NO PMA), p of decrement [3]: ns | IL-7 (NO PMA), p of decrement [3]: ns | IL-8 (NO PMA), p of decrement [3]: ns | IL-10 (NO PMA), p of decrement [3]: ns | IL-12p40 (NO PMA), p of decrement [3]: P < 0.001 | MCP-1 (NO PMA), p of decrement [3]: ns | TGF-α (NO PMA), p of decrement [3]: ns | VEGF (NO PMA), p of decrement [3]: P < 0.05 | Fractalkine (NO PMA), p of decrement [4]: increase of cytokine secretion | G-CSF (NO PMA), p of decrement [4]: increase of cytokine secretion | IL-1ra (NO PMA), p of decrement [4]: increase of cytokine secretion | IL-1α (NO PMA), p of decrement [4]: increase of cytokine secretion | IP-10 (NO PMA), p of decrement [4]: increase of cytokine secretion | MIP-1α (NO PMA), p of decrement [4]: increase of cytokine secretion | MIP-1β (NO PMA), p of decrement [4]: increase of cytokine secretion | RANTES (NO PMA), p of decrement [4]: increase of cytokine secretion | Fractalkine (NO PMA), p of decrement (12 h, TNF-α vs Lev 0.1 mM): ns | IL-1ra (NO PMA), p of decrement (12 h, TNF-α vs Lev 0.1 mM): ns | IL-1α (NO PMA), p of decrement (12 h, TNF-α vs Lev 0.1 mM): ns | IL-1β (NO PMA), p of decrement (12 h, TNF-α vs Lev 0.1 mM): ns | IL-5 (NO PMA), p of decrement (12 h, TNF-α vs Lev 0.1 mM): ns | IL-7 (NO PMA), p of decrement (12 h, TNF-α vs Lev 0.1 mM): ns | IL-8 (NO PMA), p of decrement (12 h, TNF-α vs Lev 0.1 mM): ns | IP-10 (NO PMA), p of decrement (12 h, TNF-α vs Lev 0.1 mM): ns | MCP-1 (NO PMA), p of decrement (12 h, TNF-α vs Lev 0.1 mM): ns | MIP-1β (NO PMA), p of decrement (12 h, TNF-α vs Lev 0.1 mM): ns | VEGF (NO PMA), p of decrement (12 h, TNF-α vs Lev 0.1 mM): ns | Fractalkine (NO PMA), p of decrement (12 h, TNF-α vs Lev 0.5 mM): ns | IL-1ra (NO PMA), p of decrement (12 h, TNF-α vs Lev 0.5 mM): ns | IL-1α (NO PMA), p of decrement (12 h, TNF-α vs Lev 0.5 mM): ns | IL-1β (NO PMA), p of decrement (12 h, TNF-α vs Lev 0.5 mM): ns | IL-5 (NO PMA), p of decrement (12 h, TNF-α vs Lev 0.5 mM): ns | IL-7 (NO PMA), p of decrement (12 h, TNF-α vs Lev 0.5 mM): ns | IL-8 (NO PMA), p of decrement (12 h, TNF-α vs Lev 0.5 mM): ns | IP-10 (NO PMA), p of decrement (12 h, TNF-α vs Lev 0.5 mM): ns | MCP-1 (NO PMA), p of decrement (12 h, TNF-α vs Lev 0.5 mM): ns | MIP-1β (NO PMA), p of decrement (12 h, TNF-α vs Lev 0.5 mM): ns | VEGF (NO PMA), p of decrement (12 h, TNF-α vs Lev 0.5 mM): ns | Fractalkine (NO PMA), p of decrement (12 h, TNF-α vs Lev 1.0 mM): ns | IL-1ra (NO PMA), p of decrement (12 h, TNF-α vs Lev 1.0 mM): ns | IL-1α (NO PMA), p of decrement (12 h, TNF-α vs Lev 1.0 mM): ns | IL-1β (NO PMA), p of decrement (12 h, TNF-α vs Lev 1.0 mM): ns | IL-5 (NO PMA), p of decrement (12 h, TNF-α vs Lev 1.0 mM): ns | IL-7 (NO PMA), p of decrement (12 h, TNF-α vs Lev 1.0 mM): ns | IL-8 (NO PMA), p of decrement (12 h, TNF-α vs Lev 1.0 mM): ns | IP-10 (NO PMA), p of decrement (12 h, TNF-α vs Lev 1.0 mM): ns | MCP-1 (NO PMA), p of decrement (12 h, TNF-α vs Lev 1.0 mM): ns | MIP-1β (NO PMA), p of decrement (12 h, TNF-α vs Lev 1.0 mM): ns | VEGF (NO PMA), p of decrement (12 h, TNF-α vs Lev 1.0 mM): ns | Fractalkine (NO PMA), p of decrement (12 h, TNF-α vs Lev 2.3 mM): ns | IL-1ra (NO PMA), p of decrement (12 h, TNF-α vs Lev 2.3 mM): ns | IL-1α (NO PMA), p of decrement (12 h, TNF-α vs Lev 2.3 mM): ns | IL-1β (NO PMA), p of decrement (12 h, TNF-α vs Lev 2.3 mM): ns | IL-5 (NO PMA), p of decrement (12 h, TNF-α vs Lev 2.3 mM): ns | IL-7 (NO PMA), p of decrement (12 h, TNF-α vs Lev 2.3 mM): ns | IL-8 (NO PMA), p of decrement (12 h, TNF-α vs Lev 2.3 mM): ns | IP-10 (NO PMA), p of decrement (12 h, TNF-α vs Lev 2.3 mM): ns | MCP-1 (NO PMA), p of decrement (12 h, TNF-α vs Lev 2.3 mM): ns | MIP-1β (NO PMA), p of decrement (12 h, TNF-α vs Lev 2.3 mM): ns | VEGF (NO PMA), p of decrement (12 h, TNF-α vs Lev 2.3 mM): ns | MIP-1α (NO PMA), change of secretion (12 h, TNF-α vs Lev 0.1-2.3 mM): concentration dependent increase of | MIP-1α (NO PMA), p of increase (12 h, TNF-α vs Lev 0.1-2.3 mM): cytokine secretion p < 0.01 | RANTES (NO PMA), change of secretion (12 h, TNF-α vs Lev 0.1-2.3 mM): increase of cytokine secretion | RANTES (NO PMA), p of increase (12 h, TNF-α vs Lev 0.1-2.3 mM): < 0.001 | Fractalkine (NO PMA), p of decrement [5]: ns | G-CSF (NO PMA), p of decrement [5]: ns | GM-CSF (NO PMA), p of decrement [5]: ns | IL-1ra (NO PMA), p of decrement [5]: P < 0.001 | IL-1α (NO PMA), p of decrement [5]: ns | IL-1β (NO PMA), p of decrement [5]: ns | IL-5 (NO PMA), p of decrement [5]: ns | IL-6 (NO PMA), p of decrement [5]: P < 0.001 | IL-7 (NO PMA), p of decrement [5]: ns | IL-8 (NO PMA), p of decrement [5]: P < 0.001 | IL-10 (NO PMA), p of decrement [5]: ns | IL-12p40 (NO PMA), p of decrement [5]: P < 0.05 | IP-10 (NO PMA), p of decrement [5]: ns | MCP-1 (NO PMA), p of decrement [5]: Increase | MIP-1α (NO PMA), p of decrement [5]: Increase | MIP-1β (NO PMA), p of decrement [5]: ns | RANTES (NO PMA), p of decrement [5]: Increase | TGF-α (NO PMA), p of decrement [5]: ns | VEGF (NO PMA), p of decrement [5]: P < 0.001 | Fractalkine (NO PMA), p of decrement [6]: ns | G-CSF (NO PMA), p of decrement [6]: ns | GM-CSF (NO PMA), p of decrement [6]: ns | IL-1ra (NO PMA), p of decrement [6]: P < 0.001 | IL-1α (NO PMA), p of decrement [6]: ns | IL-1β (NO PMA), p of decrement [6]: ns | IL-5 (NO PMA), p of decrement [6]: ns | IL-6 (NO PMA), p of decrement [6]: P < 0.001 | IL-7 (NO PMA), p of decrement [6]: ns
